Columns and labels:
Melanocortin receptor 3 = Melanocortin receptor 3 (Homo sapiens, UniProt P41968)
Melanocortin receptor 4 = Melanocortin receptor 4 (Homo sapiens, UniProt P32245)
[1] = target: T1, Cholecystokinin receptor type A (Homo sapiens, UniProt P32238)
T1 sequence (P32238 whole entry): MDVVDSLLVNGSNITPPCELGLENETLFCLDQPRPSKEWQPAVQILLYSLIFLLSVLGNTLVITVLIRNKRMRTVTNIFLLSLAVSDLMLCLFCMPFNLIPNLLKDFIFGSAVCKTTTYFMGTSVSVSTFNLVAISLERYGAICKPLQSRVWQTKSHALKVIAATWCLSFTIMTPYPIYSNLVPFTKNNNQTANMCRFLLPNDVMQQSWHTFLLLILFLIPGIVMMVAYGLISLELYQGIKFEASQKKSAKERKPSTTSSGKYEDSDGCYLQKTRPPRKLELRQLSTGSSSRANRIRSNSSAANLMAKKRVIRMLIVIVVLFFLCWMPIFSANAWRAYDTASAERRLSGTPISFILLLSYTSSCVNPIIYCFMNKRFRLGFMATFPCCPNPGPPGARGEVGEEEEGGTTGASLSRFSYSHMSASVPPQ

Adenosine receptor A3 = target: T2, Adenosine receptor A3 (Homo sapiens, UniProt P0DMS8)
T2 sequence (P0DMS8 whole entry): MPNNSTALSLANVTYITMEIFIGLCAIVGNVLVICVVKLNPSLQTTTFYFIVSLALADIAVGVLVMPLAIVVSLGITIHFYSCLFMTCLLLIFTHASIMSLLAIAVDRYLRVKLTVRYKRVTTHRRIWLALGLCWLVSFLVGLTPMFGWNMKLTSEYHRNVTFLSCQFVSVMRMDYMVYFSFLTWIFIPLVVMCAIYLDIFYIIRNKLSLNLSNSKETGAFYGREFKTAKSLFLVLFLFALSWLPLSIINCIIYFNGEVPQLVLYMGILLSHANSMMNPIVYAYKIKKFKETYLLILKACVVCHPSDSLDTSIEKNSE

[2] = target: Kappa-type opioid receptor (Homo sapiens, UniProt P41145)
[3] = target: T3, Type-1 angiotensin II receptor (Homo sapiens, UniProt P30556)
T3 sequence (P30556 whole entry): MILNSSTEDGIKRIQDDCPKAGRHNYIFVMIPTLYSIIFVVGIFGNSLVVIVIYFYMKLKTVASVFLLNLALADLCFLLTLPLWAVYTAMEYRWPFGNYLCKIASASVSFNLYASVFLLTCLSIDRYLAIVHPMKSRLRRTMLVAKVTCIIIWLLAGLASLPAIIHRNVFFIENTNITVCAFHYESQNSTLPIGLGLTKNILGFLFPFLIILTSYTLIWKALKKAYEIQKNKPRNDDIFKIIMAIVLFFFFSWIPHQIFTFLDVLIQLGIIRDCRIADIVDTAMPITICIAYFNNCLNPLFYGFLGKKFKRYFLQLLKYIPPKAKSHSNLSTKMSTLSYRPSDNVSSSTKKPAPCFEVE

[4] = target: T4, Neuropeptide Y receptor type 1 (Homo sapiens, UniProt P25929)
T4 sequence (P25929 whole entry): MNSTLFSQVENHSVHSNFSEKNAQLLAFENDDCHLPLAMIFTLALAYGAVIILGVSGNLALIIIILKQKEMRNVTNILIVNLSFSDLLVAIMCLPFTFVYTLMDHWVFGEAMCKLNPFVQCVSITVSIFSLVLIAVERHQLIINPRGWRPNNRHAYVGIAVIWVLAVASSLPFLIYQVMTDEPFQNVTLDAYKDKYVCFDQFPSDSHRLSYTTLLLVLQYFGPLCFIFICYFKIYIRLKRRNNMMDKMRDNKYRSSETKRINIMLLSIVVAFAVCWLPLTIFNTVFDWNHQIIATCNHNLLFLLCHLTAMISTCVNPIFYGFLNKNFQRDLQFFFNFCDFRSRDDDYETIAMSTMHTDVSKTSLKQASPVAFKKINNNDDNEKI

Estrogen receptor = target: T5, Estrogen receptor (Homo sapiens, UniProt P03372)
T5 sequence (P03372 whole entry): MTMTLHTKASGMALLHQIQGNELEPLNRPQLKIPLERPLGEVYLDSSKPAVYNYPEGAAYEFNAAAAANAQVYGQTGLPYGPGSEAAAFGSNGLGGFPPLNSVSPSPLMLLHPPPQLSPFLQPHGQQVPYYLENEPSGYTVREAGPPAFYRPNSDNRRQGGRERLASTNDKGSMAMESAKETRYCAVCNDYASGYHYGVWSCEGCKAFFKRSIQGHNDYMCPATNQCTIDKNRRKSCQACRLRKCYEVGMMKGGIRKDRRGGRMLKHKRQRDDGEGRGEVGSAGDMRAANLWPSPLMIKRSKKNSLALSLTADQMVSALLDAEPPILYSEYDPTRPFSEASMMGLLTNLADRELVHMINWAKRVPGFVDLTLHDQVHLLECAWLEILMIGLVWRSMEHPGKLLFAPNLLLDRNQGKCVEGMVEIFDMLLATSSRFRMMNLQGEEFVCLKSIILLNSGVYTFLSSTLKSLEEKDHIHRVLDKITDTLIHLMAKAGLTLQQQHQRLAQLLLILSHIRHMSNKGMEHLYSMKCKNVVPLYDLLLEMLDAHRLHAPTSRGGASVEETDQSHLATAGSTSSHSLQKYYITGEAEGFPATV

[5] = target: T6, Amine oxidase [flavin-containing] A (Homo sapiens, UniProt P21397); format: functional
T6 sequence (P21397 whole entry): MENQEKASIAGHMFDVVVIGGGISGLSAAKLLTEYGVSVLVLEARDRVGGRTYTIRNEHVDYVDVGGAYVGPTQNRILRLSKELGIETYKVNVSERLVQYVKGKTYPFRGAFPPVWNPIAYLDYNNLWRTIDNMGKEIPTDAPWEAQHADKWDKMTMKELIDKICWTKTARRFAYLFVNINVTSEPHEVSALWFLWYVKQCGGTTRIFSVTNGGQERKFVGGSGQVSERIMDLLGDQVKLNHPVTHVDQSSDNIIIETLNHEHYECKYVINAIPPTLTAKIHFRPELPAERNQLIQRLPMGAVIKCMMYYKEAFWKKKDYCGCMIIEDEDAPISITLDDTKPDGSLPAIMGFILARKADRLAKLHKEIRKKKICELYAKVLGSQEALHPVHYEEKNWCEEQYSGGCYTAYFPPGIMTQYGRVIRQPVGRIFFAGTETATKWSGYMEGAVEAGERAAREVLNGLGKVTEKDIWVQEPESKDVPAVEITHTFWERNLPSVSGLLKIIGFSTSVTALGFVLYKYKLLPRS
Also: assay procedure not described here.

Sequence of Melanocortin receptor 4 (P32245 whole entry): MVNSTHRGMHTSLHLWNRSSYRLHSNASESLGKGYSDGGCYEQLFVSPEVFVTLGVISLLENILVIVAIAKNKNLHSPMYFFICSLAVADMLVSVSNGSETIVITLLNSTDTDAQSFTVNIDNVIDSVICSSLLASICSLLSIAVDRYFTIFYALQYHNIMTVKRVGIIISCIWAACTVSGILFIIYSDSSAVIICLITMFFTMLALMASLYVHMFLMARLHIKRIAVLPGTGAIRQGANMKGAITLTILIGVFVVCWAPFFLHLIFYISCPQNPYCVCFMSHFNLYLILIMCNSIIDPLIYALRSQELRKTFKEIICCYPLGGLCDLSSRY
Sequence of Melanocortin receptor 3 (P41968 whole entry): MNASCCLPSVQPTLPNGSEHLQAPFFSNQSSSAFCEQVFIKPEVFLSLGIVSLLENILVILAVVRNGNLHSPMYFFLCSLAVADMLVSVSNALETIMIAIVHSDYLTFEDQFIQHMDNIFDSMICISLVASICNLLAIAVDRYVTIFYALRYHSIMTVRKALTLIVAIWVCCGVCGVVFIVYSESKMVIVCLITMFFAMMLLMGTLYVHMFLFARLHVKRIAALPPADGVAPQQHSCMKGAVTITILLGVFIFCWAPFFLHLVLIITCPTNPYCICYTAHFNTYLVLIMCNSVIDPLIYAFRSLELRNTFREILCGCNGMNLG
Sequence of Kappa-type opioid receptor (P41145 whole entry): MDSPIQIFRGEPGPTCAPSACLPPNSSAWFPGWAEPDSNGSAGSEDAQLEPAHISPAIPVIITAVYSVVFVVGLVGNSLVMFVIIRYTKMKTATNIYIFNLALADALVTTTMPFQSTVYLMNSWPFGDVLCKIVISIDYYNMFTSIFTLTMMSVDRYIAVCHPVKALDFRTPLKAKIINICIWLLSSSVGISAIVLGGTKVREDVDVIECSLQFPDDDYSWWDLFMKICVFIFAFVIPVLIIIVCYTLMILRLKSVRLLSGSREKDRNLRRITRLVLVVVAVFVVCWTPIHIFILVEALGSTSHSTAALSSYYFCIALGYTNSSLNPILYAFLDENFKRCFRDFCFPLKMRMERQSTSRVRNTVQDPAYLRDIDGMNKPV

Compound O=C(O)COCCN1CCN(C(c2ccccc2)c2ccc(Cl)cc2)CC1 (centres undefined) [CETIRIZINE] has an AC50 (Melanocortin receptor 3) greater than 30 µM, an AC50 (Melanocortin receptor 4) greater than 30 µM and an AC50 [1] greater than 30 µM. It also gave an AC50 (Adenosine receptor A3) greater than 30 µM, an AC50 [2] greater than 10 µM and an AC50 [3] greater than 30 µM. The AC50 [4] was greater than 30 µM, the AC50 (Estrogen receptor) was greater than 30 µM and the AC50 [5] was greater than 10 µM.

— ChEMBL document CHEMBL5291721, “A preclinical secondary pharmacology resource illuminates target-adverse drug reaction associations of marketed drugs” (Nat Commun, 2023)
